What was measured:
[1] = Growth inhibition of human RPMI8226 cells incubated for 48 hrs by sulforhodamine B assay; type: functional; conditions: RPMI-8226, 48 h
[2] = Growth inhibition of human HCC2998 cells incubated for 48 hrs by sulforhodamine B assay; type: functional; conditions: HCC 2998, 48 h
[3] = Growth inhibition of human UACC62 cells incubated for 48 hrs by sulforhodamine B assay; type: functional; conditions: UACC-62, 48 h
[4] = Selectivity ratio of IC50 for human GM00637 cells to IC50 for human MCF7 cells; type: ADME, cell-based; conditions: GM00637 cells versus MCF7 cells, read-out: Ratio IC50
[5] = Growth inhibition of human DU145 cells incubated for 48 hrs by sulforhodamine B assay; type: functional; conditions: DU-145, 48 h
SK-MEL-28 = assay: Growth inhibition of human SK-MEL-28 cells incubated for 48 hrs by sulforhodamine B assay; type: functional; conditions: SK-MEL-28, 48 h
[6] = Growth inhibition of human SKOV3 cells incubated for 48 hrs by sulforhodamine B assay; type: functional; conditions: SK-OV-3, 48 h
[7] = Growth inhibition of human HCT15 cells incubated for 48 hrs by sulforhodamine B assay; type: functional; conditions: HCT-15, 48 h
[8] = Growth inhibition of human RXF393 cells incubated for 48 hrs by sulforhodamine B assay; type: functional; conditions: RXF 393, 48 h
Malme-3M = assay: Growth inhibition of human MALME-3M cells incubated for 48 hrs by sulforhodamine B assay; type: functional
[9] = Growth inhibition of human HOP62 cells incubated for 48 hrs by sulforhodamine B assay; type: functional; conditions: HOP-62, 48 h
M14 = assay: Growth inhibition of human M14 cells incubated for 48 hrs by sulforhodamine B assay; type: functional; conditions: M14, 48 h
A549 = assay: Growth inhibition of human A549/ATCC cells incubated for 48 hrs by sulforhodamine B assay; type: functional; conditions: A549, 48 h
NCI/ADR-RES = assay: Growth inhibition of human NCI/ADR-RES cells incubated for 48 hrs by sulforhodamine B assay; type: functional
[10] = Growth inhibition of human SF295 cells incubated for 48 hrs by sulforhodamine B assay; type: functional; conditions: SF-295, 48 h
K562 = assay: Growth inhibition of human K562 cells incubated for 48 hrs by sulforhodamine B assay; type: functional; conditions: K562, 48 h
[11] = Growth inhibition of human Caki1 cells incubated for 48 hrs by sulforhodamine B assay; type: functional; conditions: CAKI-1, 48 h
[12] = Growth inhibition of human SW620 cells incubated for 48 hrs by sulforhodamine B assay; type: functional; conditions: SW-620, 48 h
EKVX = assay: Growth inhibition of human EKVX cells incubated for 48 hrs by sulforhodamine B assay; type: functional
[13] = Growth inhibition of human IGROV1 cells incubated for 48 hrs by sulforhodamine B assay; type: functional; conditions: IGROV-1, 48 h
[14] = Growth inhibition of human UO31 cells incubated for 48 hrs by sulforhodamine B assay; type: functional; conditions: UO-31, 48 h
HT-29 = assay: Growth inhibition of human HT-29 cells incubated for 48 hrs by sulforhodamine B assay; type: functional; conditions: HT-29, 48 h
[15] = Growth inhibition of human TK10 cells incubated for 48 hrs by sulforhodamine B assay; type: functional; conditions: TK-10, 48 h
NCI-H23 = assay: Growth inhibition of human NCI-H23 cells incubated for 48 hrs by sulforhodamine B assay; type: functional; conditions: NCI-H23, 48 h
[16] = read-out: pLC50 (the source's name) (converted)

O=c1ccc2nc(C(F)(F)F)nn(-c3ccccc3)c-2c1
GI50 [1]: 4.79 µM
CC50 [1, 16]: > 100 µM
TGI ([1]; read-out: pTGI (converted)): 77.6 µM
GI50 [2]: 15.5 µM
CC50 [2, 16]: 57.5 µM
TGI ([2]; read-out: pTGI (converted)): 29.5 µM
GI50 [3]: 5.13 µM
CC50 [3, 16]: 43.7 µM
TGI ([3]; read-out: pTGI (converted)): 17.8 µM
selectivity ratio [4]: 3
GI50 [5]: 1.78 µM
CC50 [5, 16]: 5.62 µM
TGI ([5]; read-out: pTGI (converted)): 3.16 µM
GI50 (SK-MEL-28): 1.7 µM
CC50 (SK-MEL-28; [16]): 6.31 µM
TGI (SK-MEL-28; read-out: pTGI (converted)): 3.24 µM
GI50 [6]: 15.1 µM
CC50 [6, 16]: > 100 µM
TGI ([6]; read-out: pTGI): > 100 µM
GI50 [7]: 2.29 µM
CC50 [7, 16]: 8.13 µM
TGI ([7]; read-out: pTGI (converted)): 3.39 µM
GI50 [8]: 1.45 µM
CC50 [8, 16]: 5.37 µM
TGI ([8]; read-out: pTGI (converted)): 2.82 µM
GI50 (Malme-3M): 1.82 µM
CC50 (Malme-3M; [16]): 6.03 µM
TGI (Malme-3M; read-out: pTGI (converted)): 3.31 µM
GI50 [9]: 7.94 µM
CC50 [9, 16]: 83.2 µM
TGI ([9]; read-out: pTGI (converted)): 27.5 µM
GI50 (M14): 5.75 µM
CC50 (M14; [16]): 45.7 µM
TGI (M14; read-out: pTGI (converted)): 19.1 µM
GI50 (A549): 19.5 µM
CC50 (A549; [16]): 79.4 µM
TGI (A549; read-out: pTGI (converted)): 38.9 µM
GI50 (NCI/ADR-RES): 53.7 µM
CC50 (NCI/ADR-RES; [16]): > 100 µM
TGI (NCI/ADR-RES; read-out: pTGI (converted)): 64.6 µM
GI50 [10]: 22.9 µM
CC50 [10, 16]: > 100 µM
TGI ([10]; read-out: pTGI (converted)): 67.6 µM
GI50 (K562): 2.09 µM
CC50 (K562; [16]): > 100 µM
GI50 [11]: 1.48 µM
CC50 [11, 16]: 5.37 µM
TGI ([11]; read-out: pTGI (converted)): 2.82 µM
GI50 [12]: 1.74 µM
CC50 [12, 16]: 7.94 µM
TGI ([12]; read-out: pTGI (converted)): 3.72 µM
GI50 (EKVX): 26.9 µM
CC50 (EKVX; [16]): 53.7 µM
TGI (EKVX; read-out: pTGI (converted)): 26.9 µM
GI50 [13]: 12 µM
CC50 [13, 16]: 55 µM
TGI ([13]; read-out: pTGI (converted)): 25.7 µM
GI50 [14]: 1.48 µM
CC50 [14, 16]: 5.62 µM
TGI ([14]; read-out: pTGI (converted)): 2.88 µM
GI50 (HT-29): 2.63 µM
CC50 (HT-29; [16]): > 100 µM
GI50 [15]: 1.62 µM
CC50 [15, 16]: 5.89 µM
TGI ([15]; read-out: pTGI (converted)): 3.09 µM
GI50 (NCI-H23): 5.89 µM
CC50 (NCI-H23; [16]): 66.1 µM
TGI (NCI-H23; read-out: pTGI (converted)): 22.4 µM
